Measurements published in US7595395B2, “Gabaergic agents to treat memory deficits” (priority 2005, dated 2009).
Like-named read-outs stand apart in the source and are kept apart here.

Legend:
[1] = biological target: T1, α3β3γ2 benzodiazepine receptor GABA(A) isoform (UniProt P18507+P34903); assay: Radioligand competition binding, α3β3γ2 BzR/GABA(A) isoform; set-up: species or system human and rat
T1 sequence (P18507 1-475): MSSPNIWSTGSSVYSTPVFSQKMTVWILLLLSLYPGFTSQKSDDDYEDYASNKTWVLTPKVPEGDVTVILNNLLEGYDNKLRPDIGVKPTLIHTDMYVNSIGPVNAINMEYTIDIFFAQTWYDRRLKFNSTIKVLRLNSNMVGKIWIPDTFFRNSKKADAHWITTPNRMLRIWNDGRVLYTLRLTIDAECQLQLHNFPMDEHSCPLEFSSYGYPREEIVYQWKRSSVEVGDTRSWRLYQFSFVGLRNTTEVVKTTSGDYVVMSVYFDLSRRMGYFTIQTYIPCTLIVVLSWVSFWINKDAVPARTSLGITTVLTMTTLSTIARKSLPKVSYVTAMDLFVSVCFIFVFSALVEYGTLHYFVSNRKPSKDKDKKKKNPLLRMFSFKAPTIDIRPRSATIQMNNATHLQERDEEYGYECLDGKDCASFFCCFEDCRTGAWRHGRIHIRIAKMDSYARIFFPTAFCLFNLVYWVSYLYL
T1 sequence (P34903 1-492): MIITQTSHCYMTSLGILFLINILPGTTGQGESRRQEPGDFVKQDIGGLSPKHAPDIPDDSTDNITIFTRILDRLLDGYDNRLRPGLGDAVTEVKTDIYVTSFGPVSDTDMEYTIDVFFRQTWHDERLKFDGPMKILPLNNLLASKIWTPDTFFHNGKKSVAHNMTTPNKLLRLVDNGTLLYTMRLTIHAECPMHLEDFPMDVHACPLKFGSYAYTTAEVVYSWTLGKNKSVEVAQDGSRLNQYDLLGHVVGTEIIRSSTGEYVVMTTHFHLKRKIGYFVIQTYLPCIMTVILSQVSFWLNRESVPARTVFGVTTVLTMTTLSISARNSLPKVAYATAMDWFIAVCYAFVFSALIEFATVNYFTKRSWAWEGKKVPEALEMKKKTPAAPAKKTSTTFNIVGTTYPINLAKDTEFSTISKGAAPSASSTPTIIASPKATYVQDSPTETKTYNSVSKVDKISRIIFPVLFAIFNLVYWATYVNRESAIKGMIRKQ
Description: The affinity of all ligands at the 6 major recombinant GABAA/BzR subtypes was measured by competition for [^3H]Ro15-1788 binding to HEK-T cells expressing both human and rat GABAA/Bz receptors of composition α1β2γ2 (α1), α2β2γ2 (α2), α3β2γ2 (α3), α4β2γ2 (α4), α5β2γ2 (α5) and α6β2γ2 (α6). It is well known that the β2 and β3 subunits can be interchanged with no effect on Bz ligand affinity or efficacy. […] These studies are similar to those performed in the laboratory of Bryan Roth who has already expressed the receptors employing the work of Kucken et. al. and Gray et. al.
In brief, for membrane preparations, the cells were scraped on to the ice and diluted into 5 mL of phosphate buffered saline (pH=7.40) and cells pelleted by centrifugation for 5 min. at 4° C. The pellet was resuspended in 1 mL of 50 mM Tris-acetate buffer (pH 7.4) and centrifuged at 18,000 g for 20 min. […] Each pellet were diluted to 6 mL and then 100 μL of membranes were incubated with approximately 1 nM final concentration of [^3H]Ro 15-1788 in a total volume of 250 μL together with serial dilutions of test compound for 90 min. on ice. The membranes were harvested in polyethyleneimine-pretreated Whatman GF/C filters and after drying and addition of scintillation cocktail, counted in a scintillation counter. The cpm retained on the filters was plotted against log concentration (M) and fitted to one site competition equation to obtain the Ki using Graphpad Prizm (V4.0) using the Cheng-Prusoff approximation.

α1β3γ2 GABAA receptor = α1β3γ2 GABAA receptor (Rattus norvegicus, UniProt P18508+P62813); assay: Two-electrode voltage clamp in Xenopus oocytes, α1β3γ2; conditions: oocytes
[2] = read-out: Ki α3, Table I, means of two determinations
[3] = read-out: α3, untitled table of lead compounds, unit inferred

Sequence of α1β3γ2 GABAA receptor (P62813 28-455): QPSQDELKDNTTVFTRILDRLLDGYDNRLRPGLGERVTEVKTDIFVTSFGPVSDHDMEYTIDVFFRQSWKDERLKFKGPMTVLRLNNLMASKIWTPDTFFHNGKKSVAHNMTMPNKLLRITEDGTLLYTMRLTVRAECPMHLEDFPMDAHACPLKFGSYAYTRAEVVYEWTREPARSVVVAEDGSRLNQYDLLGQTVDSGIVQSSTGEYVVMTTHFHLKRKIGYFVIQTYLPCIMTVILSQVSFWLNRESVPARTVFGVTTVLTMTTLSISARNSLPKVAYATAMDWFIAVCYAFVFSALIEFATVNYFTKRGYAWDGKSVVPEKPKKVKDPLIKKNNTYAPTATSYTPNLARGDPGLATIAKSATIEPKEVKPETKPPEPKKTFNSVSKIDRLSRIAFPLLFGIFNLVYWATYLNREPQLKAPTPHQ
Sequence of α1β3γ2 GABAA receptor (P63079 26-473 partner): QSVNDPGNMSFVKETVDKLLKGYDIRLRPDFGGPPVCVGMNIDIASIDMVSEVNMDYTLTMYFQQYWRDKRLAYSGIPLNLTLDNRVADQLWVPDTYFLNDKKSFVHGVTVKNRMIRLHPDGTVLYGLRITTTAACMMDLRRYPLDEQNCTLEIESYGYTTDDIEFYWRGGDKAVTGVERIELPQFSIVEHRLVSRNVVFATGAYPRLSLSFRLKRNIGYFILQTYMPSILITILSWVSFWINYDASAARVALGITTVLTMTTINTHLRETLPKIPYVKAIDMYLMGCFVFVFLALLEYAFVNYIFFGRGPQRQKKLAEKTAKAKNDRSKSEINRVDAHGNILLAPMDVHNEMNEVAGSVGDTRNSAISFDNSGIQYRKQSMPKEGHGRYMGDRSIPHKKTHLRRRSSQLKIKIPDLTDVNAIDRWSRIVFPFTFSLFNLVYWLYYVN
Sequence of α1β3γ2 GABAA receptor (P18508 39-466): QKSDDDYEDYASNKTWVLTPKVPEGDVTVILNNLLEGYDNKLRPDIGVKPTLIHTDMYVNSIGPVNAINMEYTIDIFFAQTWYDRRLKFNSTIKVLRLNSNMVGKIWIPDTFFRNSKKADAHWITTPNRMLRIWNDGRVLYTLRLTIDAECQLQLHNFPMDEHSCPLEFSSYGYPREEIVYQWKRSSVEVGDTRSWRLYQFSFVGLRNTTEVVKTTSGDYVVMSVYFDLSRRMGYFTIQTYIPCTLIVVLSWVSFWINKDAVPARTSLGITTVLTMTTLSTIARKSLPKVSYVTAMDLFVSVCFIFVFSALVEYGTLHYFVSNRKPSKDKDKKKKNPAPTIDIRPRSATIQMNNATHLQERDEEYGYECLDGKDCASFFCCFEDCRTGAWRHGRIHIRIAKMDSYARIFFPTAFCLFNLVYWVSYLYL

CCOC(=O)c1ncn2c1CN=C(c1ccccc1)c1cc(-c3ccccc3)ccc1-2 [DM-I-81, Ethyl 8-phenyl-6-phenyl-4H-benzo[f]imidazo[1,5-a][1,4]diazepine-3-carboxylate] was tested, and the Ki [1, 2] was greater than 2000 nM, the Ki [1, 3] was greater than 2000 nM and the “efficacy / modulation of GABA elicited currents at α1 (in words)” value (α1β3γ2 GABAA receptor) was “very poor efficacy”.
Work on COCc1ncn2c1CN(C)C(=O)c1cc(Cl)ccc1-2 [PWZ-029, methyl(8-chloro-5,6-dihydro-5-methyl-6-oxo-4H-imidazo[1,5-α][1,4]benzodiazepin-3-yl)methyl ether] yielded a Ki [1, 2] greater than 300 nM and a Ki [1, 3] greater than 300 nM.
With CCc1ccc2c(c1)C(=O)N(C)Cc1c(C(=O)OCCCOC(=O)c3ncn4c3CN(C)C(=O)c3cc(CC)ccc3-4)ncn1-2 [XLi356, 1,3-Bis(8-ethyl-5,6-dihydro-5-methyl-6-oxo-4H-imidazo[1,5a][1,4]benzodiazepine-3-carboxy)propyl diester] the “efficacy / modulation of GABA elicited currents at α1 (in words)” value (α1β3γ2 GABAA receptor) was “no activity”.
